Results on seven compounds are retold here after US10071108B2, “Methods and pharmaceutical compositions for the treatment of hepatitis b virus infection” (INSERM (INSTITUT NATIONAL DE LA SANTÉ ET DE LA RECHERCHE …, priority 2013, dated 2018).

In assay [1] the test system is HBV. Nature of the assay: Secretion of HBsAg in supernatant of HBV infected HepaRG cells. Format: cell-based, hepatitis B virus. To be noted: for effect on HBsAg secretion in supernatant: treated days 4, 7 and 11 post infection, supernatant day 14. The text has this:
Differentiated HepaRG cells were infected with HBV (100 geq/cell for 24 hr), then treated 3 successive times (days 4, 7 and 11 post infection) with FXR modulators at indicated concentrations in μM. Cell supernatants were collected 14 days post infection for quantification of HBsAg (Architec Abbott).
(§1) The HepaRG line derived from a human cellularhepato carcinoma can differentiate and regain many phenotypic traits of hepatocytes after 4 weeks of culture under defined conditions (Hantz O. et al., 2009, J Gen Virol, 90:127-135). After differentiation, these cells are susceptible to infection at high MOI of HBV virions produced by HepG2.2.15 line. Under these conditions viral production can be observed in the second week post infection. This system allows the study of most steps of the viral replication cycle, including penetration into the cell, translocation of the viral genome into the nucleus, the repair and synthesis of the cccDNA, transcription of pregenomic and viral mRNAs as well as later stages of the replication cycle with the synthesis of viral proteins, the assembly and secretion of infectious virions and the secretion of the viral proteins HBs and HBe.
(§2) The HepaRG system thus allows the monitoring of the secretion of HBsAg and HBeAg and virion incorporated DNA into the cell culture supernatant after infection with HBV infectious virion stocks prepared from the HepG2.2.15 cell line. This system also allows the monitoring of the synthesis of pregenomic and viral mRNAs as well as cytoplasmic replication intermediates and cccDNA. The effects of molecules on cell physiology and cell differentiated functions were explored, including the quantification of hepatic markers such as albumin and apolipoprotein B. The effects of the compounds on the cellular bile acid pathway were monitored by analysis and quantification of the FXR mRNA as well as the SHP and apoA1 encoding mRNAs the expression of which is under the control of FXR

For assay [2], the system named is HBV. Nature of the assay: Expression of HBV core protein (HBc) in infected HepaRG cells, immunofluorescence. Format: cell-based, hepatitis B virus. The note with it: fixed day 14 post infection, anti-HBc immunofluorescence. The protocol:
Differentiated HepaRG cells grown on coverslips were infected and treated as described in FIG. 1 legend (n=3±SEM). Cells were fixed on day 14 post infection and immunocytochemistry using anti-HBc antibody was carried out.

Another assay relates to APOA1. Nature of the assay: APOA1 mRNA expression in HBV infected HepaRG cells (qPCR). The note with it: 10 days treatment. Format: cell-based, human.
From the text: (§3) Differentiated HepaRG cells were infected and treated as described in FIG. 1 legend. Cells were lysed and RNA was extracted, then reverse transcribed into cDNA for qPCR. The expression levels of 3 genes of interest were quantified: FXRα, SHP and APOA1, as well as 3 housekeeping genes for normalization (n=3±SEM). FXR agonists, GW4064 and 6ECDCA, inhibit the expression of FXR mRNA in a dose-dependent manner. SHP and APOA1 are two genes under the regulation of FXR; SHP is induced by FXR while APOA1 is repressed. Here, SHP mRNA expression increases with GW4064 and 6ECDCA treatments, while APOA1 mRNA expression decreases.
as §2

Assay [3] relates to HBV. Nature of the assay: Secretion of HBV DNA in supernatant of HBV infected HepaRG cells (quantitative PCR). The note with it: for effect on secretion of HBV DNA (virions) in supernatant: supernatant day 14, quantitative PCR. Format: cell-based, hepatitis B virus.
From the text: (§4) Cell supernatants were collected 14 days post infection for quantification of HBsAg, HBeAg (Architec Abbott) or HBV DNA by quantitative PCR using rcDNA primers (n=3±SEM). FIG. 2A—Both FXR agonists, GW4064 and 6ECDCA, inhibit the secretion of HBsAg and HBeAg in the supernatant in a dose-dependent manner whereas UDCA and 052EDL133 have no effect on the antigen secretion. FIG. 2B—Both FXR agonists, GW4064 and 6ECDCA, inhibit the secretion of infectious HBV DNA positive viral particles in the supernatant in a dose-dependent manner. […] FIG. 2C—The FXR agonist PXL007 represses HBsAg, HBeAg and HBV DNA in a dose-dependent manner.
Differentiated HepaRG cells were infected and treated as described in FIG. 1 legend. Cell supernatants were collected 14 days post infection. (FIG. 8A) Quantification of HBsAg and HBeAg secretion. (FIG. 8B) Quantification of secreted infectious particles by DNA extraction and quantification by qPCR.
as §1, §2

Another assay has as its system FXRα. Nature of the assay: FXR mRNA expression in HBV infected HepaRG cells (qPCR). Format: cell-based, human. The note with it: 10 days treatment.
From the text: as §3, §2

Assay [4] has as its system HBV. Nature of the assay: HBV pregenomic/precore mRNA in infected HepaRG cells (qRT-PCR, Northern blot). The format is cell-based, hepatitis B virus.
From the text: Differentiated HepaRG cells were infected and treated as described in FIG. 1 legend. Cells were lysed and RNA was extracted, then either reverse transcribed into cDNA for quantitative PCR (qRT-PCR) (FIG. 4A) or used in Northern Blot experiment (FIG. 4B). The same experiment was repeated and DNA was extracted. Following plasmid-safe DNase treatment, cccDNA expression was quantified by qPCR experiment using specific HBV cccDNA primers and TaqMan probe (n=3±SEM) (FIG. 4C). cccDNA quantification was normalized to the number of βglobin gene. The expression levels of HBV pregenomic gene were quantified, as well as 3 housekeeping genes for normalization (n=3±SEM). […]
as §2, with “This system also allows the monitoring of the synthesis of pregenomic and viral mRNAs as well as cytoplasmic replication intermediates and cccDNA.” left out

The subject of assay [5] is HBV. Nature of the assay: Secretion of HBeAg in supernatant of HBV infected HepaRG cells. To be noted: for effect on HBeAg secretion in supernatant: HBV infected HepaRG, treated days 4, 7 and 11 post infection, supernatant day 14. The format is cell-based, hepatitis B virus.
From the text: as §4, §1, §2

Another assay deals with SHP. Nature of the assay: SHP mRNA expression in HBV infected HepaRG cells (qPCR). The format is cell-based, human. To be noted: 10 days treatment.
From the text: as §3, §2

Another assay deals with T1, FXR (Homo sapiens, UniProt Q96RI1).
T1 construct: host or cells: Huh-7
T1 sequence (Q96RI1 1-486): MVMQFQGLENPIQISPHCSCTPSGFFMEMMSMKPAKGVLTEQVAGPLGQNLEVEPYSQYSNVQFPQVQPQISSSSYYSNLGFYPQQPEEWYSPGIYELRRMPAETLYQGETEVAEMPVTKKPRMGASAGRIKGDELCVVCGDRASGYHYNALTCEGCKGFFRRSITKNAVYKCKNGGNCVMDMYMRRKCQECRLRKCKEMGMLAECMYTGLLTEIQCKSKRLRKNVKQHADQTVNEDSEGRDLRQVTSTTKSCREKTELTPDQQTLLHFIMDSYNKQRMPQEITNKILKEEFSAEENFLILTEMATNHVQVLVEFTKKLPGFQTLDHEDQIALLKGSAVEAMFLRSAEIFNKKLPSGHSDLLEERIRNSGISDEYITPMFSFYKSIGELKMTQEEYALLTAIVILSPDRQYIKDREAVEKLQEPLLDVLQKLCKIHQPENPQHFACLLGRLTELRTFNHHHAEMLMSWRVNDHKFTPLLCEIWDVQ
Nature of the assay: Reporter gene under control of the HBV Enh2/core promoter region (two FXR response elements) in Huh-7 cell line. The format is cell-based. The note with it: data not shown. The text has this:
A panel of molecules not previously described and original or reference modulators of FXR activity were first tested on the expression of a reporter gene under the control of the HBV Enh2/core promoter region that contains two FXR response elements in the Huh-7 cell line as described in Ramière C, et al., 2008, J Virol; 82: 10832-10840. Molecules were then classified as FXR agonists or antagonists on the basis respectively of the expression increase or decrease of the reporter gene under the transcription control of FXR. […] Thus some molecules decreased the production of HBsAg in a dose-dependent manner. If the active molecules are classified by their antagonist, agonist or agonist “partial” by the screening test in Huh-7 cell with the reporter gene construct, it appears, against previous odds, that the inhibitory effect on the production of HBsAg grew with the tendency of the molecule to be a potent FXR agonist.

Where [6] appears, read: CsA during infection, then FXR agonist.

Entries after “also recorded” stand apart in the source; their conditions may differ.

With `CC(C)c1onc(-c2c(Cl)cccc2Cl)c1COc1ccc(/C=C/c2cccc(C(=O)O)c2)c(Cl)c1` [GW4064], the “HBsAg secretion, FXR agonist treatment of cells infected in presence of cyclosporin A” value in the assay on HBV [1] (setting [6]) is on record as “further reduced”. In addition, the “effect on HBsAg secretion in supernatant” value with HBV [1] (HBV infected HepaRG) is “inhibit; also recorded: strong and dose dependent inhibitory effect; also recorded: dose dependent and strong inhibitory effect”. Moreover, in the assay on HBV [1] (at 10 μM, HBV infected HepaRG), the “inhibition of HBsAg secretion” value is recorded as “around 70%”. The “expression of HBc in infected cells” value in the assay on HBV [2] is given as “drastically reduce; also recorded: strongly inhibited”. Also, in the assay on APOA1, the “APOA1 mRNA expression” value is reported as “decreased”. The “effect on secretion of HBV DNA (virions) in supernatant” value (from here on “effect on secretion of HBV DNA”) in the assay on HBV [3] is recorded as “inhibit”. For the same compound, in the assay on FXRα, the “FXR mRNA expression” value was “inhibit; also recorded: strongly repressed”. In addition, the “expression of HBV pregenomic/precore mRNA” value in the assay with HBV [4] is recorded as “inhibit”. In addition, in the assay with HBV [5] (setting [6]), the “HBeAg secretion, FXR agonist treatment of cells infected in presence of cyclosporin A” value is “further reduced”. In the assay with HBV [5], the “effect on HBeAg secretion in supernatant” value was “inhibit; also recorded: dose dependent and strong inhibitory effect”. Moreover, in the assay with SHP, the “SHP mRNA expression” value is listed as “increased”.

With `O=C(O)c1cc2c(Cl)c(N3CCN(S(=O)(=O)c4c(Cl)cccc4Cl)CC3)ccc2o1` [PXL007], in the assay on HBV [1] (HBV infected HepaRG), the “effect on HBsAg secretion in supernatant” value is “represses; also recorded: strongly inhibited”. For the same compound, the “effect on secretion of HBV DNA” value with HBV [3] is on record as “represses; also recorded: strongly inhibited”. In addition, the “effect on HBeAg secretion in supernatant” value in the assay with HBV [5] is reported as “represses; also recorded: strongly inhibited”.

Regarding `O=C(O)c1cc2c(Br)c(N3CCC(NS(=O)(=O)c4c(Cl)cccc4Cl)CC3)ccc2o1` [PXL0743, 4-Bromo-5-[4-(2,6-dichloro-benzenesulfonylamino)-piperidin-1-yl]-benzofuran-2-carboxylic acid], in the assay with HBV [1] (HBV infected HepaRG), the “effect on HBsAg secretion in supernatant” value is “intermediate profile of inhibition”. Moreover, the “classification as FXR agonist or antagonist by reporter gene expression” value (“classification” for short) at FXR is “Partial agonists”.

Regarding `O=C(O)c1cc2c(Br)c(N3CCCN(S(=O)(=O)c4ccccc4Cl)CC3)ccc2o1` [PXL0914, 4-Bromo-5-[4-(2-chloro-benzenesulfonyl)-[1,4]diazepan-1-yl]-benzofuran-2-carboxylic acid], the “effect on HBsAg secretion in supernatant” value in the assay on HBV [1] (HBV infected HepaRG) was “intermediate profile of inhibition”. Further, the “classification” value on FXR was “Partial agonists”.

Turning to `Cc1c(N2CCN(C(=O)c3c(Cl)cccc3Cl)CC2)ccc2oc(C(=O)O)cc12` [PXL0924, 5-[4-(2,6-Dichloro-benzoyl)-piperazin-1-yl]-4-methyl-benzofuran-2-carboxylic acid], the “effect on HBsAg secretion in supernatant” value with HBV [1] (HBV infected HepaRG) is “intermediate profile of inhibition”. The “classification” value on FXR is listed as “Partial agonists”.

With `C[C@H](CCC(=O)O)[C@H]1CC[C@H]2[C@@H]3[C@@H](O)C[C@@H]4C[C@H](O)CC[C@]4(C)[C@H]3CC[C@]12C` [UDCA, ursodesoxycholic acid], the “effect on HBsAg secretion in supernatant” value with HBV [1] (HBV infected HepaRG) is given as “no effect”; in the assay on HBV [1] (HBV infected HepaRG, listed as ursodeoxycholate) it was “did not inhibit”. Also, in the assay on HBV [2], the “expression of HBc in infected cells” value is reported as “do not appear to modify; also recorded: did not significantly modify”. In addition, in the assay with HBV [3], the “effect on secretion of HBV DNA” value is “no or limited effect; also recorded: did not modify”. The “effect on HBeAg secretion in supernatant” value in the assay with HBV [5] was “no effect”; in the assay on HBV [5] (listed as ursodeoxycholate) it was “did not inhibit”.

`Nc1ccn([C@@H]2CS[C@H](CO)O2)c(=O)n1` [lamivudine]: in the assay on HBV [3] (at 10 μM), the “reduction of viral DNA secreted in supernatant” value came out at 97%.
